Experimental data reported in patent US20110077270A1, “Compositions and Methods for Treating Ocular Inflammation with Lower Risk of Increased Intraocular Pressure” (priority 2009, published 2011).
Where “and” joins values, the source holds several entries; their conditions need not be identical. Equal values may be shown once.

Columns and labels:
[1] = test system: rabbit paracentesis model; test: Pupillary diameter measurement, rabbit paracentesis model; format: in vivo; conditions: individual eye; for Pupillary diameter T1: −180 min: 50 μl drops, basal; for Pupillary diameter T2: −5 min: 5 min before first paracentesis; for Pupillary diameter T3: +115 min: 5 min before second paracentesis; for Pupillary diameter Δ(T3 − T1): +115 min minus −180 min
Description: (§1) Each rabbit was placed in a restraint device and tagged with the alphanumeric code. The formulations were instilled (50 μl) into the conjunctival sac of both eyes 180, 120, 90 and 30 min before the first paracentesis; then 15, 30, 90 min after the first paracentesis. To perform the first paracentesis the animals were anaesthetized by intravenous injection of 5 mg/kg Zoletil® (Virbac; 2.5 mg/kg tiletamine HCl and 2.5 mg/kg zolazepam HCl) and one drop of local anesthetic (Novesina®, Novartis) was administered to the eye. Anterior chamber paracentesis was performed with a 26 G needle attached to a tuberculin syringe; the needle was introduced into the anterior chamber through the cornea, taking care not to damage the tissues. Two hours after the first paracentesis, the animals were sacrificed with 0.4 ml Tanax® (Intervet International B.V.) and the second paracentesis was performed. About 100 μl of aqueous humor were removed at the second paracentesis. Aqueous humor was immediately split in four aliquots and stored at −80° C. until analysis. Then both eyes were enucleated and the iris-ciliary body was carefully excised, placed in polypropylene tubes, and stored at −80° C. until analysis.
The pupillary diameter of both eyes was measured with a Castroviejo caliper 180 min and 5 min before the first paracentesis and 5 min before the second paracentesis.

[2] = test system: rabbit paracentesis model; test: Clinical evaluation (slit lamp clinical score), rabbit paracentesis model; format: in vivo; parameters: key to Clinical Score −180 min / Clinical Score −5 min / Clinical Score +115 min: 0: normal; 1: discrete dilatation of iris and conjunctival vessels; 2: moderate dilatation of iris and conjunctival vessels; 3: intense iridal hyperemia with flare in the anterior chamber; 4: intense iridal hyperemia with flare in the anterior chamber and presence of fibrinous exudates; conditions: for Clinical Score −5 min: 5 min before first paracentesis; for Clinical Score −5 min / Clinical Score +115 min / Clinical Score −180 min: individual eye; for Clinical Score +115 min: 5 min before second paracentesis; for Clinical Score −180 min: basal
[3] = test system: protein concentration in the aqueous humor; test: Protein measurement in aqueous humor, rabbit paracentesis model; format: in vivo; conditions: for Protein level in aqueous humor, Mean / Protein level in aqueous humor: second paracentesis; for Protein level in aqueous humor, Mean: group mean; for Protein level in aqueous humor: individual eye
Description: as §1
For protein concentration determination in the aqueous humor we used the Protein Quantification Kit (Fluka; Cat. No. 77371; Lot. No. 1303129). Five microliters of aqueous humor were diluted to 100 μl with water. Twenty microliters of samples and of standards were load into a 96-well plate and recorded in a plate layout. Samples were treated following the assay procedure described in the kit. A microplate reader (GDV, Italy; model DV 990 B/V6) set at 670 nm was used for making the calibration and analyzing the samples.

[4] = test system: leukocytes (PMN) in aqueous humor; test: Leukocytes (PMN) measurement in aqueous humor, rabbit paracentesis model; format: in vivo; conditions: second paracentesis; for PMN numbers in aqueous humor, Mean: group mean; for PMN numbers in aqueous humor: individual eye
Description: as §1
For the determination of the number of leukocytes we used a haemocytometer (Improved Neubauer Chamber; Bright-line, Hausser Scientific) and a Polyvar 2 microscope (Reichert-Jung).

[5] = test system: MPO activity in iris-ciliary body; test: Myeloperoxidase (MPO) activity in iris-ciliary body, rabbit paracentesis model; format: in vivo; conditions: for MPO Unit/g: iris-ciliary body samples collected after the second paracentesis, individual eye samples; for MPO activity in iris-ciliary body, Mean: after second paracentesis, group mean
Description: as §1
The activity of MPO was measured as previously described by Williams et al.[5] The iris-ciliary bodies were carefully dried, weighed and immersed in 1 ml of hexa-decyl-trimethyl-ammonium bromide solution. Then, the samples were sonicated for 10 sec on ice by a ultrasound homogenizer (HD 2070, Bandelin electronic), freeze-thawed three times, sonicated for 10 sec and centrifuged at 14,000 g for 10 min to remove cellular debris. An aliquot of the supernatant ([…] was diluted to 3 ml with the o-dianisidine 2HCl/H2O2 solution. The change in absorbance at 460 nm was continuously monitored for 5 min by a spectrophotometer (UV/Vis Spectrometer Lambda EZ 201; Perkin Elmer). The slope of the line (Δ/min) was determined for each sample and used to calculate the number of units of MPO in the tissue as follows:
were ε=11.3 mM^−1. Values were expressed as units of MPO/g of tissue.

[6] = test system: monkey TM cells; test: Cell metabolic activity (resazurin reduction) assay in monkey TM cells; format: cell-based, rhesus monkeys (Macaca mulatta); conditions: 3 to 300 nM, end of treatment period; results not shown
Description: A modification of previously described methods^40 was employed to evaluate cell metabolic activity, an index of cell viability. After collection of CM samples, cells were briefly rinsed in modified Hanks balanced salt solution containing Ca^++ and Mg^++ (“MHBSS”), and then 0.0025% (w/v) resazurin (Sigma) in MHBSS was added to sample wells. Plates were incubated (37° C., 5% CO2, 95% humidity) for 90 minutes, after which fluorescence (Excitation 560 nm, Emission 590 nm) was read (Victor 3V Multilabel Counter, Wallac, Turku, Finland). As a positive control for decreased cellular metabolic reduction of resazurin, in each plate an additional well of vehicle control-treated cells was preincubated with 0.06% hydrogen peroxide (Fisher, Atlanta, Ga.) in MHBSS.

[7] = test system: human corneal epithelial cells (HCECs); test: IL-1β-stimulated cytokine production in primary human corneal epithelial cells (30-cytokine Luminex kit); conditions: IL-1β-stimulated HCECs, 18 h
Description: Primary HCECs were seeded in 24-well plates. […] Each treatment was performed in triplicate. Media were collected and used for determination of cytokine content using a 30-cytokine Luminex kit.
Median fluorescence intensity (WI) was used to obtain the concentration of each cytokines in pg/ml based on the standard curve of each cytokine assayed by Luminex. The linear range of the standard curve for each cytokine was used for determination of cytokine concentration. Duplicate values for each sample were averaged. Data were expressed as mean±SD. Statistical analysis was performed using one-way ANOVA-Dunnett's test, and P<0.05 was considered statistically significant.

[8] = 0.1% topical formulation, listed as BOL
[9] = 0.5% topical formulation, listed as BOL
[10] = 1% topical formulation, listed as BOL
[11] = 0.1% topical formulation, +115 min
[12] = 0.1% topical formulation, −5 min
[13] = 0.1% topical formulation, −180 min (basal)
[14] = 0.5% topical formulation, +115 min

## Cc1ccc2c(NCC(O)(CC(C)(C)c3cc(F)cc4c3OCC4)C(F)(F)F)cccc2n1 (stereo not shown) [BOL-303242-X]
[1]; [8]
  Pupillary diameter T1: −180 min: 6.5 mm (4×) and 7.0 mm (3×) and 7.5 mm
  Pupillary diameter T2: −5 min: 6.5 mm (3×) and 7.0 mm (4×) and 7.5 mm
  Pupillary diameter T3: +115 min: 5.0 mm (2×) and 6.0 mm (3×) and 6.5 mm and 5.5 mm (2×)
  Pupillary diameter Δ(T3 − T1): −1.5 mm (4×) and −0.5 mm (2×) and −1.0 mm (2×)
[1]; [9]
  Pupillary diameter T1: −180 min: 8.0 mm (3×) and 7.0 mm (3×) and 7.5 mm (2×)
  Pupillary diameter T2: −5 min: 8.0 mm (3×) and 7.0 mm (4×) and 7.5 mm
  Pupillary diameter T3: +115 min: 6.5 mm (4×) and 6.0 mm (2×) and 7.0 mm (2×)
  Pupillary diameter Δ(T3 − T1): −1.5 mm (2×) and −0.5 mm (2×) and −1.0 mm (4×)
[1]; [10]
  Pupillary diameter T1: −180 min: 6.0 mm (3×) and 6.5 mm (5×)
  Pupillary diameter T2: −5 min: 6.0 mm (2×) and 6.5 mm (4×) and 7.0 mm (2×)
  Pupillary diameter T3: +115 min: 5.5 mm (2×) and 5.0 mm (4×) and 6.0 mm (2×)
  Pupillary diameter Δ(T3 − T1): −0.5 mm (3×) and −1.5 mm (2×) and −1.0 mm (3×)
[2]; 0.1% topical formulation
  Clinical Score −5 min: 0
  Clinical Score −180 min: 0
[2]; [8]
  Clinical Score +115 min: 2 (6×) and 3 (2×)
[2]; [11]
  Percentage of eyes with clinical score 2: 75%
  Percentage of eyes with clinical score 3: 25%
[2]; [12]
  Percentage of eyes with clinical score 0: 100%
[2]; [13]
  Percentage of eyes with clinical score 0: 100%
[2]; 0.5% topical formulation
  Clinical Score −5 min: 0
  Clinical Score −180 min: 0
[2]; [9]
  Clinical Score +115 min: 2 (5×) and 1 (3×)
[2]; [14]
  Percentage of eyes with clinical score 1: 37.5%
  Percentage of eyes with clinical score 2: 62.5%
[2]; 0.5% topical formulation, −5 min
  Percentage of eyes with clinical score 0: 100%
[2]; 0.5% topical formulation, −180 min (basal)
  Percentage of eyes with clinical score 0: 100%
[2]; 1% topical formulation
  Clinical Score −5 min: 0
  Clinical Score +115 min: 2
  Clinical Score −180 min: 0
[2]; 1% topical formulation, +115 min
  Percentage of eyes with clinical score 2: 100%
[2]; 1% topical formulation, −5 min
  Percentage of eyes with clinical score 0: 100%
[2]; 1% topical formulation, −180 min (basal)
  Percentage of eyes with clinical score 0: 100%
[3]; 0.1% topical formulation
  Protein level in aqueous humor, Mean: 33.667 mg/mL
[3]; [8]
  Protein level in aqueous humor: 34.87 mg/mL and 34.41 mg/mL and 31.14 mg/mL and 22.82 mg/mL and 29.46 mg/mL and 31.69 mg/mL and 35.70 mg/mL and 49.25 mg/mL
[3]; 0.5% topical formulation
  Protein, p vs CTR: < 0.05
  Protein level in aqueous humor, Mean: 28.844 mg/mL
[3]; [9]
  Protein level in aqueous humor: 33.98 mg/mL and 33.65 mg/mL and 19.99 mg/mL and 27.11 mg/mL and 19.72 mg/mL and 36.35 mg/mL and 27.71 mg/mL and 32.24 mg/mL
[3]; 1% topical formulation
  Protein level in aqueous humor, Mean: 21.435 mg/mL
[3]; [10]
  Protein level in aqueous humor: 20.99 mg/mL and 21.48 mg/mL and 15.11 mg/mL and 20.28 mg/mL and 20.94 mg/mL and 21.89 mg/mL and 20.03 mg/mL and 30.76 mg/mL
[4]; 0.1% topical formulation
  PMN numbers in aqueous humor, Mean: 28.333 number/μl
[4]; [8]
  PMN numbers in aqueous humor: 20 number/μl (4×) and 40 number/μl and 50 number/μl
[4]; 0.5% topical formulation
  PMN numbers in aqueous humor, Mean: 21.250 number/μl
[4]; [9]
  PMN numbers in aqueous humor: 40 number/μl (2×) and 20 number/μl (3×) and 10 number/μl (3×)
[4]; 1% topical formulation
  PMN numbers in aqueous humor, Mean: 28.750 number/μl
[4]; [10]
  PMN numbers in aqueous humor: 30 number/μl (3×) and 20 number/μl (3×) and 40 number/μl (2×)
[5]; 0.1% BOL, listed as BOL
  MPO Unit/g: 1.04 Unit/g and 1.00 Unit/g and 1.14 Unit/g and 1.06 Unit/g and 1.22 Unit/g and 0.61 Unit/g and 1.05 Unit/g and 0.65 Unit/g
[5]; 0.1% topical formulation
  MPO activity in iris-ciliary body, Mean: 0.971 MPO Unit/g
[5]; 0.1%, 0.5%, 1% topical formulations, overall conclusion across biomarkers
  Activity in rabbit paracentesis model (preliminary conclusion): active in this model
[5]; 0.5% BOL, listed as BOL
  MPO Unit/g: 0.85 Unit/g and 0.93 Unit/g and 0.79 Unit/g and 1.03 Unit/g and 0.75 Unit/g and 0.74 Unit/g and 0.54 Unit/g and 0.58 Unit/g
[5]; 0.5% topical formulation
  MPO activity in iris-ciliary body, Mean: 0.775 MPO Unit/g
[5]; 1% BOL, listed as BOL
  MPO Unit/g: 0.66 Unit/g and 0.68 Unit/g and 0.49 Unit/g and 0.40 Unit/g and 0.34 Unit/g and 1.02 Unit/g and 0.31 Unit/g and 0.43 Unit/g
[5]; 1% topical formulation
  MPO activity in iris-ciliary body, Mean: 0.542 MPO Unit/g
[6]
  Cell viability compared to vehicle controls (resazurin reduction): nor did any drug treatments result in a loss of cell viability
[7]
  Potency of inhibition of IL-1β-stimulated production of GM-CSF, IL-8, and RANTES relative to dexamethasone: less potency compared to dexamethasone
[7]; comparable potency of both
  Inhibition of IL-1β-stimulated cytokine production on 6 cytokines (IL-6, IL-7, MCP-1, TGF-α, TNF-α and VEGF): significantly inhibited

## C[C@@H]1C[C@H]2[C@@H]3CCC4=CC(=O)C=C[C@]4(C)[C@@]3(F)[C@@H](O)C[C@]2(C)[C@@]1(O)C(=O)CO [Dex, dexamethasone, reference compound]
[1]; 0.1% topical formulation
  Pupillary diameter T1: −180 min: 6.0 mm and 7.0 mm (2×) and 5.5 mm (2×) and 6.5 mm (3×)
  Pupillary diameter T2: −5 min: 5.5 mm and 6.5 mm (3×) and 6.0 mm (2×) and 7.0 mm and 7.5 mm
  Pupillary diameter T3: +115 min: 5.5 mm (3×) and 6.0 mm (2×) and 4.5 mm and 5.0 mm and 6.5 mm
  Pupillary diameter Δ(T3 − T1): −0.5 mm (3×) and −1.5 mm (2×) and 0.5 mm and 0.0 mm and −2.0 mm
[2]; 0.1% topical formulation
  Clinical Score −5 min: 0 (6×) and 1 (2×)
  Clinical Score +115 min: 1 (6×) and 3 (2×)
  Clinical Score −180 min: 0
[2]; [11]
  Percentage of eyes with clinical score 1: 75%
  Percentage of eyes with clinical score 3: 25%
[2]; [12]
  Percentage of eyes with clinical score 0: 75%
  Percentage of eyes with clinical score 1: 25%
[2]; [13]
  Percentage of eyes with clinical score 0: 100%
[3]; 0.1% topical formulation
  Protein level in aqueous humor, Mean: 33.457 mg/mL
  Protein level in aqueous humor: 31.31 mg/mL and 31.81 mg/mL and 35.95 mg/mL and 37.15 mg/mL and 32.12 mg/mL and 32.40 mg/mL
[4]; 0.1% topical formulation
  PMN numbers in aqueous humor: 20 number/μl (3×) and 50 number/μl and 40 number/μl and 30 number/μl
[5]; 0.1% Dex
  MPO Unit/g: 0.71 Unit/g and 0.60 Unit/g and 1.32 Unit/g and 0.48 Unit/g (2×) and 0.39 Unit/g and 0.45 Unit/g and 0.51 Unit/g
[5]; 0.1% topical formulation
  MPO activity in iris-ciliary body, Mean: 0.618 MPO Unit/g
[6]
  Cell viability compared to vehicle controls (resazurin reduction): nor did any drug treatments result in a loss of cell viability
